Measured values taken from publication PMC10907560, “Significant reduction of activity retention in the kidneys via optimized linker sequences in radiohybrid-based minigastrin analogs” (EJNMMI Research, 2024).
Like-named read-outs stand apart in the source and are kept apart here. Numbered stars: 1 amine (or outer) side, 2 acyl side, 3 side chain; on linkers, the order of the positions; unused ones are H or OH. Square brackets hold non-standard residues; d marks the D form. Peptide text beside a SMILES is read from it. * marks the point of attachment. X1 = CC(C)(C)[Si](F)(c1ccc(C[N+](C)(C)CC(=O)*)cc1)C(C)(C)C; DOTA = O=C(O)CN1CCN(CC(=O)O)CCN(CC(=O)*)CCN(CC(=O)O)CC1; d(γGlu) = O=C(O)[C@@H](CCC(=O)[*:2])N[*:1]; 1Nal = N[C@@H](Cc1cccc2ccccc12)C(=O)O; PEG5 = NCCOCCOCCOCCOCCOCCC(=O)O; NMeNle = CCCC[C@H](NC)C(=O)O; PEG4 = NCCOCCOCCOCCOCCC(=O)O; Nle = CCCC[C@H](N)C(=O)O; dDap = NC[C@@H](N)C(=O)O

Tests used:
[1] = target: T1, cholecystokinin-2 receptor (CCK-2R) (Rattus norvegicus, UniProt P30553); test: CCK-2R affinity (apparent IC50), competitive binding on AR42J cells; details: natLu-labeled peptide, 3 h, 37 °C, [177Lu]Lu-DOTA-PP-F11N (0.3 pmol) as radiolabeled reference
T1 construct: host or cells: AR42J (rat pancreatic cancer cells)
T1 sequence (P30553 1-452): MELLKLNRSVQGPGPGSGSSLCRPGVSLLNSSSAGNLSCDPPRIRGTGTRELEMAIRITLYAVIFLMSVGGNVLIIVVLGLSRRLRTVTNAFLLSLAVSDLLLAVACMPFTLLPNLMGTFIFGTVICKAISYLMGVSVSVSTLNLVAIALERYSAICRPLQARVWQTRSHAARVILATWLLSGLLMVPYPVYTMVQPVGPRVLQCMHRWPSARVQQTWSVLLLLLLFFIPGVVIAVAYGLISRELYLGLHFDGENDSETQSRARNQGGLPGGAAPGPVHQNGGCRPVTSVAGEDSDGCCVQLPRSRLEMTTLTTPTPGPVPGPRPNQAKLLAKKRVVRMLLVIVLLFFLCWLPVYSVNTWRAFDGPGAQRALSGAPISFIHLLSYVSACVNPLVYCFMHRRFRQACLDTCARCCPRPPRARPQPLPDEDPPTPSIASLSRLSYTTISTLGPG
Method: On the next day, medium was removed, cells were washed with PBS (300 µL) and fresh nutrient medium supplemented with 5% BSA (200 µL) was added. The peptide of interest (25 µL in nutrient medium) in increasing concentrations (10^−10 to 10^−4 M) in triplicate as well as [^177Lu]Lu-DOTA-PP-F11N (25 μL, 0.3 pmol) were added to the cells and the assay was incubated for 3 h at 37 °C. Subsequently, the supernatant was collected, cells were washed with PBS (300 µL) and both fractions were unified. Cell lysis was conducted by addition of NaOH (300 µL, 1 N) and incubation for at least 20 min at room temperature. The supernatant was collected, the respective wells were washed with NaOH (300 µL, 1 N) and both fractions were unified. Radioactivity of all fractions collected was quantified using a γ-counter (PerkinElmer Inc., Waltham, United States). Apparent half-maximal inhibitory concentration (IC50) was calculated via the GraphPad PRISM software (GraphPad Software Inc., La Jolla, United States).
CCK-2R positive rat pancreatic cancer cells AR42J (CLS GmbH, Eppelheim, Germany) were cultivated in monolayers in CELLSTAR® cell culture flask (Greiner Bio-One GmbH, Frickenhausen, Germany) at 37°C in a humidified atmosphere (5% CO2). Therefor, a HERAcell 150i-Incubator (Thermo Fisher Scientific Inc., Waltham, United States) was used. RPMI 1640 medium, supplemented with 5 mM L-Gln 5 mL non-essential amino acids (100×) and 10% FCS, was used for cell nutrition. Detachment of the cells for passaging was conducted with a Dulbecco’s PBS solution supplemented with 0.1% EDTA (v/v). Cell numbers were determined with a Neubauer hemocytometer (Paul Marienfeld, Lauda-Königshofen, Germany). All operations requiring sterile conditions, were accomplished using a MSC-Advantage safety workbench (Thermo Fisher Scientific Inc., Waltham, United States).
Table S1. Affinity, lipophilicity and human serum albumin binding data of the compounds evaluated. Affinity data were determined on AR42J cells (2.0 × 10^5 cells/well) and [^177Lu]Lu-DOTA-PP-F11N (0.3 pmol/well) as radiolabeled reference (3 h, 37 °C, RPMI 1640, 5 mM L-Gln, 5 mL non-essential amino acids (100×), 10% FCS + 5% BSA (v/v)).

[2] = Lipophilicity, n-octanol/PBS distribution coefficient logD7.4; format: physicochemical; details: 177Lu-labeled peptide; n-octanol/PBS (1/1), n ≥ 5
Method: For determination of lipophilicity, the respective ^177Lu-Labeled peptide precursor (~ 1 MBq, 10 µL in 0.04 M HCl) was added to a solution of n-octanol/PBS (1/1, v/v, 1 mL) and vigourously mixed for 3 min at room temperature (n ≥ 5). Afterwards both phases were seperated using a Biofuge 15 centrifuge (Heraus Sepatech GmbH, Osterode, Germany) at 9,000 rpm for 5 min. 200 µL aliquots of both layers were collected separately, measured in a γ-counter (Perkin Elmer, Waltham, MA, USA) and the logD7.4 value was obtained.

[3] = target: T2, Human serum albumin (HSA) (Homo sapiens, UniProt P02768); test: Human serum albumin binding via high performance affinity chromatography (HPAC); format: in vitro ADME; details: Chiralpak HSA column, n = 1
T2 construct: purchased Daicel, Tokyo, Japan H13H-2433
T2 sequence (P02768 25-609): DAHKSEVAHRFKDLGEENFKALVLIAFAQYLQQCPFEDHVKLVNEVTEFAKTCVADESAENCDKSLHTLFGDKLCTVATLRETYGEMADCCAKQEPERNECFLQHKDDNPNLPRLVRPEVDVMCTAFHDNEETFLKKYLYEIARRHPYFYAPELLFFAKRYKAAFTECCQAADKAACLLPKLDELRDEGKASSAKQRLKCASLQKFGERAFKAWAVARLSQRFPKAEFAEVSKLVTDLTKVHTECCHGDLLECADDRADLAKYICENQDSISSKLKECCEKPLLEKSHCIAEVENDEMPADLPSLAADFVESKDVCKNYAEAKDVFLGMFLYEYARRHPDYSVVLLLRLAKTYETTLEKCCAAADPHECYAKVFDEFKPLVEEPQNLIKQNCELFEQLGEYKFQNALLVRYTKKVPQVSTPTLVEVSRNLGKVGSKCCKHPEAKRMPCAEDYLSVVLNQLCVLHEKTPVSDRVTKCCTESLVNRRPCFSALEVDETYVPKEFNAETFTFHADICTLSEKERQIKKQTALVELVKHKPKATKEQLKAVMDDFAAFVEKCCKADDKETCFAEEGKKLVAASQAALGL
Method: Human serum albumin (HSA) binding was determined via high performance affinity chromatography (HPAC), according to previously published protocols. Human serum albumin interaction was calculated according to the retention time (n = 1) of our compounds on a Chiralpak HSA column in dependence of nine reference compounds with known HSA interaction.
Human serum albumin binding was determined via high performance affinity chromatography. Therefore, a Chiralpak HSA column (50 × 3 mm, 5 µm, H13H-2433, Daicel, Tokyo, Japan) was used at a constant flow rate of 0.5 ml/min at room temperature. Mobile phase A consisted of a freshly prepared aqueous solution of NH4OAc (pH = 6.9, 50 mM) and mobile phase B of isopropanol. Calibration of the column was performed daily prior to experiments, by determining the retention times of nine reference substances displaying a HSA binding from 13 to 99%. HPLC gradient for all compounds tested was 100% A (0 to 3 min), followed by 80% A (3 to 40 min). All substances tested, were dissolved in a mixture of A/B (0.5 mg/mL, 1:1, v/v). OriginPro 2016G software (Northampton, United States) was used for non-linear regression and data evaluation.

[4] = target: T1, cholecystokinin-2 receptor (CCK-2R); details: AR42J cells; read-out: apparent IC50; cited from earlier work
[5] = tested on: AR42J tumor-bearing CB17-SCID mice; details: 24 h p.i.; cited from earlier work

| Compound | IC50 ([1]; n = 3, listed as [^natLu]Lu-DOTA-rhCCK-69) | logD [2] | HSA binding [3] | IC50 ([1]; n = 3) | IC50 [4] | activity levels in the tumor [5] |
| --- | --- | --- | --- | --- | --- | --- |
| CCCC[C@@H](C(=O)N[C@@H](CC(=O)O)C(=O)N[C@@H](Cc1cccc2ccccc12)C(N)=O)N(C)C(=O)[C@H](Cc1c[nH]c2ccccc12)NC(=O)CCOCCOCCOCCOCCNC(=O)CC[C@@H](NC(=O)CCOCCOCCOCCOCCOCCOCCOCCOCCOCCOCCOCCOCCNC(=O)CC[C@@H](NC(=O)[C@@H](CNC(=O)c1cc(C(=O)O)cc([Si](F)(C(C)(C)C)C(C)(C)C)c1)NC(=O)CN1CCN(CC(=O)O)CCN(CC(=O)O)CCN(CC(=O)O)CC1)C(=O)O)C(=O)O [[^nat/177Lu]Lu-DOTA-rhCCK-69, DOTA-D-Dap(SiFA-ipa)-D-γ-Glu-(PEG)11-B, metal not drawn] | 0.0421 ± 0.0017 µM | -2.11 ± 0.09 | 84.7% | – | – | – |
| CCCC[C@@H](C(=O)N[C@@H](CC(=O)O)C(=O)N[C@@H](Cc1cccc2ccccc12)C(N)=O)N(C)C(=O)[C@H](Cc1c[nH]c2ccccc12)NC(=O)CCOCCOCCOCCOCCNC(=O)CC[C@@H](NC(=O)CCOCCOCCOCCOCCOCCNC(=O)[C@@H](CNC(=O)C[N+](C)(C)Cc1ccc([Si](F)(C(C)(C)C)C(C)(C)C)cc1)NC(=O)CN1CCN(CC(=O)O)CCN(CC(=O)O)CCN(CC(=O)O)CC1)C(=O)O [[^nat/177Lu]Lu-DOTA-rhCCK-90, DOTA-D-Dap(SiFAlin)-(PEG)4-B, metal not drawn] ({DOTA}-[dDap](X1)[PEG5][d(γGlu)][PEG4]W[NMeNle]D[1Nal]-NH2) | – | -0.76 ± 0.09 | 94.5% | 0.0099 ± 0.001 µM | – | – |
| (R)-DOTAGA-D-Dap(p-SiFA)-(D-γ-Glu)6-Ala-Tyr-Gly-Trp-Nle-Asp-Phe-NH2 ({(R)‑DOTAGA-dDap(p-SiFA)-d(γGlu)-d(γGlu)-d(γGlu)-d(γGlu)-d(γGlu)-d(γGlu)}-AYGW[Nle]DF-NH2; also: 177Lu complex of DOTAGA) [[^177Lu]Lu-(R)-DOTAGA-rhCCK-16] | – | – | – | – | 0.0204 ± 0.0027 µM | 18.0 ± 0.7 %ID/g |
